In patent publication US8304394B2, “Low side effect pharmaceutical composition containing isoniazid” (priority 2008, dated 2012):
Like-named read-outs stand apart in the source and are kept apart here.

Tests used:
[1] = target: T1, CYP2E1 (Homo sapiens, UniProt P05181); experiment: Chlorzoxazone hydroxylation inhibition (6-OH-CZX by LC/MS/MS); conditions: human, microsomes, pH 7.4
[2] = target: T1, CYP2E1; experiment: in vitro; conditions: for inhibition at 40 min, 33 µM: pH 7.4; for inhibition at 40 min, 16.5 µM / inhibition at 40 min, 66 µM: pH 7.4, Inhibition of CYP 2E1 (%); for inhibition at 40 min, 16.5 µM: tested concentration 16.5 μM; for inhibition at 40 min, 66 µM: tested concentration 66 μM
[3] = target: human liver microsomal cytochrome P450 2E1 (CYP2E1) (Homo sapiens, UniProt P05181); experiment: Chlorzoxazone hydroxylation inhibition (6-OH-CZX by LC/MS/MS)
[4] = target: cDNA expressed human cytochrome P450 2E1 (CYP2E1) (Homo sapiens, UniProt P05181)
Chain of cDNA expressed human cytochrome P450 2E1 (CYP2E1) (P05181 whole entry): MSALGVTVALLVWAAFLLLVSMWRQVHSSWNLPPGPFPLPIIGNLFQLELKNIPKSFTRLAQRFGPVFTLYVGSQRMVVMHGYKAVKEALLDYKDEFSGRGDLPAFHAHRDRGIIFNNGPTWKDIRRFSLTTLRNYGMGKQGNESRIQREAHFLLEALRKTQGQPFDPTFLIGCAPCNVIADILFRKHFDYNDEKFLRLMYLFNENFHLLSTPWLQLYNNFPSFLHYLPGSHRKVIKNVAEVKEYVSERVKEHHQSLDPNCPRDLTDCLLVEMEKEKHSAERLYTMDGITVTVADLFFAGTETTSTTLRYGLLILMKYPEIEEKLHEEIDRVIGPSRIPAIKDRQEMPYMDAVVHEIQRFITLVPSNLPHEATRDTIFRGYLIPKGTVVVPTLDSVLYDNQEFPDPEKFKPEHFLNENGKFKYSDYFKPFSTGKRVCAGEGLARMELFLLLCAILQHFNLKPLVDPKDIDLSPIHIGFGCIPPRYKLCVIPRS

T1 sequence (P05181 whole entry): as above
Chain of human liver microsomal cytochrome P450 2E1 (CYP2E1) (P05181 whole entry): as above

| Compound | inhibition at 30 min, 16.5 µM [1] | inhibition at 30 min, 33 µM [1] | inhibition at 30 min, 66 µM [1] | inhibition at 40 min, 16.5 µM [2] | inhibition at 40 min, 66 µM [2] | further results |
| --- | --- | --- | --- | --- | --- | --- |
| COc1ccc([C@@H]2CC(=O)c3c(O)cc(O)cc3O2)cc1O [Hesperetin] | 25.7 ± 2.45% | 34.3 ± 2.03% | 44.6 ± 2.35% | 32.1 ± 5.8% | 54.8 ± 1.37% | inhibition at 40 min, 33 µM [2]: 43.3 ± 0.82% |
| O=C1c2c(O)cc(O)cc2O[C@H](c2ccc(O)c(O)c2)[C@H]1O [(+)-Taxifolin] | – | – | – | 22.6 ± 11.7% | 34.5 ± 3.47% | – |
| CCCCCCCCCCCCCC(=O)OCC [Ethyl Myristate] | 22.1 ± 0.78% | 41 ± 4.76% | 52 ± 2.38% | – | – | – |
| O=C(O)[C@H]1O[C@@H](Oc2cc3oc(-c4ccccc4)cc(=O)c3c(O)c2O)[C@H](O)[C@@H](O)[C@@H]1O [Baicalin] | 22.5 ± 2.24% | 35.6 ± 3.09% | 49.3 ± 2.26% | – | – | – |
| O=c1cc(-c2ccc(O)c(O)c2)oc2cc(O)cc(O)c12 [Luteolin] | 39.1 ± 3.42% | 43.4 ± 4.74% | 53.2 ± 1.78% | – | – | – |
| Oc1cc(O)c2c(c1)O[C@H](c1cc(O)c(O)c(O)c1)[C@H](O)C2 [(−)-Epigallocatechin] | – | – | – | – | – | Inhibition of CYP 2E1 (%) ([3]; tested concentration 16.5 μM): 38.95 ± 1.92%; Inhibition of CYP 2E1 (%) ([3]; tested concentration 33 μM): 36.40 ± 2.18%; Inhibition of CYP 2E1 (%) ([3]; tested concentration 66 μM): 57.08 ± 1.85% |
| O=c1cc(-c2ccc(O)cc2)oc2cc(O)cc(O)c12 [Apigenin] | 28.9 ± 1.54% | 36.8 ± 1.98% | 47.5 ± 3.66% | – | – | – |
| COc1ccc(-c2oc3cc(O)cc(O)c3c(=O)c2O)cc1O [Tamarixetin] | 37.4 ± 1.96% | 47.8 ± 2.81% | 50.9 ± 3.12% | – | – | – |
| O=C(O)/C=C/c1ccccc1 [trans-Cinnamic acid] | – | – | – | 5.71 ± 10.5% | 7.1 ± 6.95% | inhibition at 40 min, 33 µM [2]: 4.66 ± 6.5% |
| O=c1c(O)c(-c2ccc(O)cc2)oc2cc(O)cc(O)c12 [Kaempferol] | 66.5 ± 1.71% | 74.74 ± 0.6% | 79.25 ± 0.27% | 71.9 ± 1.14% | 70.6 ± 2.53% | inhibition at 40 min, 33 µM [2]: 70 ± 3.75% |
| CCCCCCCCCCCC1=C(O)C(=O)C=C(O)C1=O [Embelin] | – | – | – | 5.95 ± 7.48% | 13.5 ± 11.6% | inhibition at 40 min, 33 µM [2]: 12.3 ± 10.2% |
| CCCCC[C@H](O)CC(=O)CCc1ccc(O)c(OC)c1 [6-Gingerol] | – | – | – | – | – | Inhibition of CYP 2E1 (%) ([4]; tested concentration 33 μM): 39.83 ± 2.32% |
| O=c1c(-c2ccc(O)cc2)coc2cc(O)cc(O)c12 [Genistein] | 43.9 ± 2.06% | 30.9 ± 1.62% | 36.9 ± 1.56% | – | – | – |
| O=C/C=C/c1ccccc1 [Trans-Cinnamaldehyde] | 60.8 ± 3% | 89.6 ± 1.52% | 92.81 ± 0.53% | – | – | – |
| O=C(CCc1ccc(O)cc1)c1c(O)cc(O)cc1O[C@@H]1O[C@H](CO)[C@@H](O)[C@H](O)[C@H]1O [Phloridzin] | – | – | – | 1.25 ± 7.9% | 1.42 ± 9.28% | inhibition at 40 min, 33 µM [2]: 3.76 ± 3.58% |
| COc1c(O)cc(O)c2c(=O)cc(-c3ccccc3)oc12 [Wongonin] | – | – | – | – | – | Inhibition of CYP 2E1 (%) ([4]; tested concentration 33 μM): 21.87 ± 1.90% |
| C=CC(=C)CCC=C(C)C [β-Myrcene] | 53.4 ± 4.93% | 75.5 ± 2.14% | 76.5 ± 2.18% | – | – | – |
| COc1ccc(-c2cc(=O)c3c(O)cc(O[C@@H]4O[C@H](CO[C@@H]5O[C@@H](C)[C@H](O)[C@@H](O)[C@H]5O)[C@@H](O)[C@H](O)[C@H]4O)cc3o2)cc1O [Diosmin] | 60 ± 1.96% | 43.1 ± 3.57% | 21.6 ± 1.19% | – | – | – |
| O=C(O)c1ccc(O)c(O)c1 [Protocatechuic acid] | – | – | – | 25.7 ± 12.7% | 22.8 ± 4.07% | inhibition at 40 min, 33 µM [2]: 19.9 ± 8.95% |
| O=c1cc(-c2ccc(O)cc2)oc2c([C@@H]3O[C@H](CO)[C@@H](O)[C@H](O)[C@H]3O)c(O)cc(O)c12 [Vitexin] | 23.1 ± 1.19% | 30.6 ± 0.78% | 38.7 ± 1.62% | – | – | – |
| Oc1cc(O)c2c(c1)O[C@H](c1ccc(O)c(O)c1)[C@@H](O)C2 [(+)-Catechin] | – | – | – | – | – | Inhibition of CYP 2E1 (%) ([4]; tested concentration 16.5 μM): 41.53 ± 7.62%; Inhibition of CYP 2E1 (%) ([4]; tested concentration 33 μM): 33.83 ± 8.76%; Inhibition of CYP 2E1 (%) ([4]; tested concentration 66 μM): 16.45 ± 9.67% |
| O=C(O[C@@H]1Cc2c(O)cc(O)cc2O[C@@H]1c1cc(O)c(O)c(O)c1)c1cc(O)c(O)c(O)c1 [(−)-Epigallocetechin-3-gallate] | – | – | – | – | – | Inhibition of CYP 2E1 (%) ([3]; tested concentration 16.5 μM): 50.19 ± 1.89%; Inhibition of CYP 2E1 (%) ([3]; tested concentration 33 μM): 60.53 ± 2.06%; Inhibition of CYP 2E1 (%) ([3]; tested concentration 66 μM): 72.16 ± 1.02% |
